# pIC50, pKi: −log10 of the molar value.
# Assays:
# [1] = molecular target: 5-hydroxytryptamine receptor 4 (Cavia porcellus, UniProt O70528); experiment: Ability to antagonize 5-HT-evoked contractions mediated through 5-hydroxytryptamine 4 receptor activation in the guinea pig distal colon LMMP; type: tissue-based
# [2] = molecular target: D(3) dopamine receptor (Homo sapiens, UniProt P35462); experiment: Binding affinity was determined against Dopamine receptor D3 determined using cloned human receptors expressed in CHO cells radiolabeled with [125I]- iodosulpride; type: cell-based
# [3] = molecular target: T1, 5-hydroxytryptamine receptor 1A (Homo sapiens, UniProt P08908); experiment: Binding affinity was determined against 5-hydroxytryptamine 1A receptor; set-up: species or system Cavia porcellus
# T1 sequence (P08908 whole entry): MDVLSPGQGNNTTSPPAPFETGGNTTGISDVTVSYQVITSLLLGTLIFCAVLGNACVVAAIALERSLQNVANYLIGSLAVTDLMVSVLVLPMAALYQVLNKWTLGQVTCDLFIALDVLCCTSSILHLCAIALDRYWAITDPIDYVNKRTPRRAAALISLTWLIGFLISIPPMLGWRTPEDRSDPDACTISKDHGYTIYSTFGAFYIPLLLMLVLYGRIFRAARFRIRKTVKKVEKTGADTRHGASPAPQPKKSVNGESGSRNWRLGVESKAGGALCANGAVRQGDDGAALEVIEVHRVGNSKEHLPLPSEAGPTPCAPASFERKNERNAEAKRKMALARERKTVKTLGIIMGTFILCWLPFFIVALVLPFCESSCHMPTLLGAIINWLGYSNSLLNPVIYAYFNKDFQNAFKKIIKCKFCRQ
# [4] = Binding affinity was determined against 5-hydroxytryptamine 1D receptor
# [5] = (§1) Binding affinity was determined against 5-hydroxytryptamine 2A receptor; set-up: species or system Cavia porcellus
# [6] = molecular target: 5-hydroxytryptamine receptor 2A (Homo sapiens, UniProt P28223); experiment: as §1; set-up: species or system Cavia porcellus
# [7] = molecular target: Histamine H1 receptor (Cavia porcellus, UniProt P31389); experiment: Binding affinity was determined against H1 receptor
# [8] = molecular target: D(2) dopamine receptor (Homo sapiens, UniProt P14416); experiment: Binding affinity was determined by standard competitive displacement of [125I]iodosulpride using Dopamine receptor D2 cloned human receptors expressed in CHO cells
# D(2) dopamine receptor, sequence (P14416 whole entry): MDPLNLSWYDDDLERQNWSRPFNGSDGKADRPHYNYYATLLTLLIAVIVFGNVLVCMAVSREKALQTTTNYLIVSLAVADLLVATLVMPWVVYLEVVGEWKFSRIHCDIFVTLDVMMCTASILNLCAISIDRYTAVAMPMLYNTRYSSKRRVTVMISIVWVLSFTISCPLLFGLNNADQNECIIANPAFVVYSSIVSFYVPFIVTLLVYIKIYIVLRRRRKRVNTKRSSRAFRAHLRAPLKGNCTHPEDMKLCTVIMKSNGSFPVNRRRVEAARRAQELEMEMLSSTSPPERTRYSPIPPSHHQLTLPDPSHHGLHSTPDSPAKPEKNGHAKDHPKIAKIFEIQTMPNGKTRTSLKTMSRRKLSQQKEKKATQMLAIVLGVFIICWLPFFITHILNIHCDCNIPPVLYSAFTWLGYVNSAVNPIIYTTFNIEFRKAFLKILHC
# 5-hydroxytryptamine receptor 4, sequence (O70528 whole entry): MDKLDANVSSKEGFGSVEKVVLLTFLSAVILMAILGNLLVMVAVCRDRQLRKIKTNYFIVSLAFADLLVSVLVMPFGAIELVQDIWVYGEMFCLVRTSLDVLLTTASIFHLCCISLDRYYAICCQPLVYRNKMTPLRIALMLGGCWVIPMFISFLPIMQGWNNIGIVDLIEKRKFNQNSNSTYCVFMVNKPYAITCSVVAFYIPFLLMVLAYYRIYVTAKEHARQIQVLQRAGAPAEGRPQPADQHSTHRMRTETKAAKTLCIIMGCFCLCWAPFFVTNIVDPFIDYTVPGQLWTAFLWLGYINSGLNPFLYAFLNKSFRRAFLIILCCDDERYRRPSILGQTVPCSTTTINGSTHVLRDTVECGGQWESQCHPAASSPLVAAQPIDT
# Histamine H1 receptor, sequence (P31389 whole entry): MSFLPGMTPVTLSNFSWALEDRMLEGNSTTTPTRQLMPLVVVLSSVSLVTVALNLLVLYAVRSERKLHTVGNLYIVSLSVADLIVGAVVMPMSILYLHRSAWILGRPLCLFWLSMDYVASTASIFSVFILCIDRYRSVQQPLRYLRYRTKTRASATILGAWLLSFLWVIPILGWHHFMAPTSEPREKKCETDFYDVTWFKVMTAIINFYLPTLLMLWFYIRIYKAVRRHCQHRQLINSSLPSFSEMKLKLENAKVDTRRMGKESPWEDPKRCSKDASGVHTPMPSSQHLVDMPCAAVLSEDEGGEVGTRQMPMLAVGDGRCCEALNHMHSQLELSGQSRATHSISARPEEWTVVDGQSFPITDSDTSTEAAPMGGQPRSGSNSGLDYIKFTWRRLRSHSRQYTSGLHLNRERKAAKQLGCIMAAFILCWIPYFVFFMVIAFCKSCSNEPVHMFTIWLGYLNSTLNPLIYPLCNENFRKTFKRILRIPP
# 5-hydroxytryptamine receptor 2A, sequence (P28223 whole entry): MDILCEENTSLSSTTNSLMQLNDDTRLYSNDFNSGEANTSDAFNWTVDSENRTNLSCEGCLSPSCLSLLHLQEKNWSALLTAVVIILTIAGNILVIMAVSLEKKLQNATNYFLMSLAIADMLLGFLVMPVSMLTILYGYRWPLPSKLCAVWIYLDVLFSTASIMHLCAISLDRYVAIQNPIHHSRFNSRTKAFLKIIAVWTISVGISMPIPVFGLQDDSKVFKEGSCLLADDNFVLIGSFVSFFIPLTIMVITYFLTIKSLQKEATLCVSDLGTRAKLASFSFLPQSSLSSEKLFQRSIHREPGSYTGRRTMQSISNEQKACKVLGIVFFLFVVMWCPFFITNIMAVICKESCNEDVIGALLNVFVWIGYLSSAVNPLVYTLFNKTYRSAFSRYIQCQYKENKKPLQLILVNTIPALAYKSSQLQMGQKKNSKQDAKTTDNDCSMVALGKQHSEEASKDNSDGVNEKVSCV
# D(3) dopamine receptor, sequence (P35462 whole entry): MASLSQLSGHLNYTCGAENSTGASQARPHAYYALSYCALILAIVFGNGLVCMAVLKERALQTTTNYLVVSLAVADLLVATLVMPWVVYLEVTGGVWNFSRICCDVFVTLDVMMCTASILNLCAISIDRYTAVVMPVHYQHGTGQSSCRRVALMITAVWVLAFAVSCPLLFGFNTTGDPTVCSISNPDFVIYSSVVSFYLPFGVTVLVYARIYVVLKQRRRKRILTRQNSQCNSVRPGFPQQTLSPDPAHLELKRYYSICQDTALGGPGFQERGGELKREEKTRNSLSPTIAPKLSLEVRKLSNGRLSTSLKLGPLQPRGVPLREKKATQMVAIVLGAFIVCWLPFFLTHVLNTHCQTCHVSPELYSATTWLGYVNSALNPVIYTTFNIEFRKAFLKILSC
smiles,measurement,setting,value
CCCCN1CCC(CNC(=O)c2c(OC)[nH]c3ccccc23)CC1,pIC50,[1],7.10
CCCCN1CCC(CNC(=O)c2c3n(c4ccccc24)CCCCO3)CC1,pIC50,[1],8.10
CCCCN1CCC(CNC(=O)c2c[nH]c3ccccc23)CC1,pIC50,[1],6.70
CCCCN1CCC(CNC(=O)c2c3n(c4ccccc24)CCO3)CC1,pIC50,[1],7.80
CCCCN1CCC(CNC(=O)c2c3n(c4ccccc24)CCCO3)CC1 [PIBOSEROD],pKi,[2],< 6.00
same,pKi,[3],< 5.00
same,pKi,[4],< 5.00
same,Log Ki,[5],> -6
same,pKi,[6],< 6.00
same,pKi,[7],< 6.00
same,pKi,[8],< 6.00
CCCCN1CCC(COC(=O)c2c(OC)[nH]c3ccccc23)CC1,pIC50,[1],10.00

# Reference: ChEMBL document CHEMBL1128720, “N-[(1-butyl-4-piperidinyl)methyl]-3,4dihydro-2H-[1,3]oxazino[3,2- a]indole10-carboxamide hydrochloride: the first potent and selective 5-HT4 receptor antagonist amide with oral activity” (J Med Chem, 1995)
